For orientation: IC50 means the point on the concentration scale where inhibition reaches its midpoint.

This test deals with microfilariae of Dirofilaria immitis. Description: Dirofilaria immitis, Microfilaria (DiMF) Assay. Type of test: cell-based. The settings on record: read-out: D. immitis activity level (IC50 or MED). The protocol:
Heartworm Screen Dirofilaria immitis (D. immitis)
Dirofilaria immitis, Microfilaria (DiMF) Assay.
Compounds were dissolved and serially diluted in DMSO. Aliquots were spotted to the empty wells of assay plates. Media and microfilariae of Dirofilaria immitis were added to each well to dilute the test compounds to the desired concentrations. Assay plates were incubated for approximately 72 hours, and the larvae in each well were observed microscopically for drug effect. Microfilariae in each well were assessed subjectively for survival or paralysis, and results were reported as Minimum Effective Dose (MED).
Active and selective (DiL4 vs. DiMF potency) example compounds were subsequently evaluated in heartworm positive dog studies to correlate the in vitro selectivity profile with in vivo effects on circulating microfilariae.
Take `FC(F)(F)c1ccc(Nc2nc(-c3ccccn3)ns2)nc1` [Cmpd 1]: the IC50 was below 200 nM.
The figure for `COc1ccc(Nc2nc(-c3ccccn3)ns2)nc1` [Cmpd 2, N-(5-methoxy-pyridin-2-yl)-3-(pyridin-2-yl)-1,2,4-thiadiazol-5-amine] is 500 to 5000 nM; for `FC(F)(F)c1cncc(Nc2nc(-c3ccccn3)ns2)c1` [Cmpd 3, 3-(pyridin-2-yl)-N-(5-(trifluoromethyl)pyridin-3-yl)-1,2,4-thiadiazol-5-amine] it is 500 to 5000 nM.
The figure for `c1ccc(-c2nsc(Nc3ccc(N4CCCCC4)cn3)n2)nc1` [Cmpd 6, N-(5-(piperidin-1-yl)pyridin-2-yl)-3-(pyridin-2-yl)-1,2,4-thiadiazol-5-amine] is 500 to 5000 nM; for `c1ccc(-c2nsc(Nc3ccc(N4CCCC4)cn3)n2)nc1` [Cmpd 8, 3-(pyridin-2-yl)-N-(5-(pyrrolidin-1-yl)pyridin-2-yl)-1,2,4-thiadiazol-5-amine] it is 500 to 5000 nM.
Turning to `c1ccc(-c2nsc(Nc3ccc(OC4CCOCC4)cn3)n2)nc1` [Cmpd 9, 3-(pyridin-2-yl)-N-(5-(tetrahydro-2H-pyran-4-yloxy)pyridin-2-yl)-1,2,4-thiadiazol-5-amine], the IC50 lay in the range of 500 to 5000 nM.
As for `Cc1ccnc(-c2nsc(Nc3ncccc3F)n2)c1` [Compound 12, N-(3-fluoropyridin-2-yl)-3-(4-methylpyridin-2-yl)-1,2,4-thiadiazol-5-amine], the figure is 200 to 500 nM; as for `Cc1ccnc(-c2noc(Nc3ncccc3F)n2)c1` [Compound 14, N-(3-fluoro-pyridin-2-yl)-3-(4-methylpyridin-2-yl)-1,2,4-oxadiazol-5-amine], 500 to 5000 nM.
Take `Cc1cccnc1Nc1nc(-c2ccc(OC3CCOCC3)cn2)ns1` [Compound 15, N-(3-methyl-pyridin-2-yl)-3-(5-(tetrahydro-2H-pyran-4-yloxy)pyridin-2-yl)-1,2,4-thiadiazol-5-amine]: the IC50 was in the range of 500 to 5000 nM.
The figure for `Cc1cccnc1Nc1nc(-c2ccc(OC3CCOCC3)cn2)no1` [Compound 16, N-(3-methyl-pyridin-2-yl)-3-(5-(tetrahydro-2H-pyran-4-yloxy)pyridin-2-yl)-1,2,4-oxadiazol-5-amine] is 500 to 5000 nM; for `Cc1cccnc1Nc1nc(-c2ccc(OC(C)C)cn2)ns1` [Compound 19, 3-(5-isopropoxy-pyridin-2-yl)-N-(3-methyl-pyridin-2-yl)-1,2,4-thiadiazol-5-amine] it is below 200 nM.
As to `Cc1cccnc1Nc1nc(-c2ccc(OC(C)C)cn2)no1` [Compound 20, 3-(5-isopropoxy-pyridin-2-yl)-N-(3-methyl-pyridin-2-yl)-1,2,4-oxadiazol-5-amine], the IC50 lay in the range of 500 to 5000 nM.
`CNc1cccnc1Nc1nc(-c2cc(C)ccn2)ns1` [Compound 23, N3-methyl-N2-(3-(4-methylpyridin-2-yl)-1,2,4-thiadiazol-5-yl) pyridine-2,3-diamine]: the half-maximal inhibitory concentration (IC50) was 200 to 500 nM.
As for `Cc1cccnc1Nc1nc(-c2ccc(OC3CC3)cn2)ns1` [Compound 38, 3-(5-cyclo-propoxypyridin-2-yl)-N-(3-methyl-pyridin-2-yl)-1,2,4-thiadiazol-5-amine], the figure is 200 to 500 nM; as for `Cc1cccnc1Nc1nc(-c2cc(C#N)ccn2)ns1` [Compound 40, 2-(5-(3-methyl-pyridin-2-ylamino)-1,2,4-thiadiazol-3-yl)isonicotino-nitrile], 500 to 5000 nM; as for `Cc1cccnc1-c1noc(Nc2ccc(N3CCCC3)cn2)n1` [Compound 42, 3-(3-methyl-pyridin-2-yl)-N-(5-(pyrrolidin-1-yl)pyridin-2-yl)-1,2,4-oxadiazol-5-amine], 500 to 5000 nM.
As for `Cc1cccnc1Nc1nc(-c2ccc(OC3CCN(C4CC4)CC3)cn2)ns1` [Compound 45, 3-(5-(1-cyclo-propylpiperidin-4-yloxy)pyridin-2-yl)-N-(3-methylpyridin-2-yl)-1,2,4-thiadiazol-5-amine], the figure is 500 to 5000 nM; as for `Cc1cccnc1-c1nsc(Nc2ccc(N3CCCC3)cn2)n1` [Compound 51, 3-(3-methyl-pyridin-2-yl)-N-(5-(pyrrolidin-1-yl)pyridin-2-yl)-1,2,4-thiadiazol-5-amine], 500 to 5000 nM.
As for `Cc1cccnc1Nc1nc(-c2ccc(OC(F)(F)F)cn2)ns1` [Compound 52, N-(3-methyl-pyridin-2-yl)-3-(5-(trifluoro-methoxy)pyridin-2-yl)-1,2,4-thiadiazol-5-amine], the figure is 500 to 5000 nM; as for `CC(C)Oc1ccc(-c2nsc(Nc3ncccc3C(F)(F)F)n2)nc1` [Compound 54, 3-(5-isopropoxy-pyridin-2-yl)-N-(3-(trifluoromethyl)pyridin-2-yl)-1,2,4-thiadiazol-5-amine], below 200 nM.
For the molecule `CN1CCC(Oc2ccc(-c3nsc(Nc4ncccc4C(F)(F)F)n3)nc2)CC1` [Compound 55, 3-(5-(1-methyl-piperidin-4-yloxy)pyridin-2-yl)-N-(3-(trifluoromethyl)pyridin-2-yl)-1,2,4-thiadiazol-5-amine], the IC50 lay in the range of 500 to 5000 nM.
Take `CC(C)Oc1ccc(-c2nsc(Nc3ncccc3N(C)C)n2)nc1` [Compound 56, N2-(3-(5-isoprop-oxypyridin-2-yl)-1,2,4-thiadiazol-5-yl)-N3,N3 - dimethyl-pyridine-2,3-diamine]: the IC50 lay within 200 to 500 nM.
The figure for `CN1CCC(Oc2ccnc(-c3nsc(Nc4ncccc4C(F)(F)F)n3)c2)CC1` [Compound 62, 3-(4-(1-methyl-piperidin-4-yloxy)pyridin-2-yl)-N-(3-(trifluoromethyl)pyridin-2-yl)-1,2,4-thiadiazol-5-amine] is 500 to 5000 nM; for `Cc1cccnc1Nc1nc(-c2cc(OC3CC3)ccn2)ns1` [Compound 65, 3-(4-cycloprop-oxypyridin-2-yl)-N-(3-methyl-pyridin-2-yl)-1,2,4-thiadiazol-5-amine] it is below 200 nM; for `CC(C)c1ccnc(-c2nsc(Nc3ncccc3C(F)(F)F)n2)c1` [Compound 67, 3-(4-isopropyl-pyridin-2-yl)-N-(3-(trifluoromethyl)pyridin-2-yl)-1,2,4-thiadiazol-5-amine] it is below 200 nM.
As for `COc1ccc(-c2nsc(Nc3ccc(C4CCCC4)cn3)n2)nc1` [Compound 68, N-(5-cyclopentyl-pyridin-2-yl)-3-(5-methoxypyridin-2-yl)-1,2,4-thiadiazol-5-amine], the figure is 500 to 5000 nM.
Regarding `CC(C)Oc1ccc(-c2n[nH]c(Nc3ncccc3C(F)(F)F)n2)nc1` [Compound 70, N-(3-(5-isopropoxy-pyridin-2-yl)-1H-1,2,4-triazol-5-yl)-3-(trifluoromethyl) pyridin-2-amine], the IC50 was in the range of 500 to 5000 nM.
The figure for `Cc1cccnc1Nc1nc(-c2ccc(OCC3CC3)cn2)ns1` [Compound 73, 3-(5-(cyclopropyl-methoxy)pyridin-2-yl)-N-(3-methylpyridin-2-yl)-1,2,4-thiadiazol-5-amine] is 200 to 500 nM; for `CC(C)c1cccnc1Nc1nc(-c2ccc(OC3CC3)cn2)ns1` [Compound 74, 3-(5-cyclopropoxy-pyridin-2-yl)-N-(3-isopropylpyridin-2-yl)-1,2,4-thiadiazol-5-amine] it is below 200 nM; for `CC(C)Oc1ccc(-c2nsc(Nc3ncccc3C3CC3)n2)nc1` [Compound 76, N-(3-cyclopropyl-pyridin-2-yl)-3-(5-isopropoxy-pyridin-2-yl)-1,2,4-thiadiazol-5-amine] it is below 200 nM.
The figure for `CN(C)c1cccnc1Nc1nc(-c2ccc(OC3CC3)cn2)ns1` [Compound 78, N2-(3-(5-cyclopropoxy-pyridin-2-yl)-1,2,4-thiadiazol-5-yl)-N3,N3-dimethyl-pyridine-2,3-diamine] is 500 to 5000 nM.
The figure for `COc1cccnc1Nc1nc(-c2ccc(OC3CC3)cn2)ns1` [Compound 80, 3-(5-cycloprop-oxypyridin-2-yl)-N-(3-methoxypyridin-2-yl)-1,2,4-thiadiazol-5-amine] is 500 to 5000 nM.
Consider `Cc1cccnc1Nc1nc(-c2ccc(OC3CCN(C4CC4)CC3(F)F)cn2)ns1` (centres unmarked) [Compound 83, 3-(5-(1-cyclo-propyl-3,3-difluoro-piperidin-4-yloxy)pyridin-2-yl)-N-(3-methylpyridin-2-yl)-1,2,4-thiadiazol-5-amine], for which the IC50 was 200 to 500 nM.
The figure for `FC(F)(F)c1cccnc1Nc1nc(-c2cc(C3CC3)ccn2)ns1` [Compound 84, 3-(4-cyclopropyl-pyridin-2-yl)-N-(3-(trifluoromethyl)pyridin-2-yl)-1,2,4-thiadiazol-5-amine] is below 200 nM; for `FC(F)(F)c1ccnc(Nc2nc(-c3cc(C4CC4)ccn3)ns2)c1` [Compound 85, 3-(4-cyclopropyl-pyridin-2-yl)-N-(4-(trifluoromethyl)pyridin-2-yl)-1,2,4-thiadiazol-5-amine] it is below 200 nM.
The figure for `CC(C)c1ccnc(-c2nsc(Nc3cc(C(F)(F)F)ccn3)n2)c1` [Compound 86, 3-(4-isopropyl-pyridin-2-yl)-N-(4-(trifluoromethyl)pyridin-2-yl)-1,2,4-thiadiazol-5-amine] is below 200 nM; for `CC(C)c1cccnc1Nc1nc(-c2ccc(OC3CCN(C4CC4)CC3(F)F)cn2)ns1` (centres unmarked) [Compound 87, 3-(5-(1-cyclo-propyl-3,3-difluoro-piperidin-4-yloxy)pyridin-2-yl)-N-(3-isopropylpyridin-2-yl)-1,2,4-thiadiazol-5-amine] it is 200 to 500 nM; for `CC(C)c1cccnc1Nc1nc(-c2ccc(O[C@@H]3CCN(C4CC4)C[C@@H]3F)cn2)ns1` [Compound 89, 3-(5-((3S,4R)-1-cyclopropyl-3-fluoro-piperidin-4-yloxy)pyridin-2-yl)-N-(3-isopropylpyridin-2-yl)-1,2,4-thiadiazol-5-amine] it is below 200 nM.
